Patent publication US10752640B2, “Compounds active towards bromodomains” (NUEVOLUTION A/S, priority 2014, dated 2020)

biological target: BRD4 protein (Homo sapiens, UniProt O60885); test: FRET assay, half maximal inhibitory concentration (IC50); assay type: binding; conditions: BRD4 protein 50 nM, Biotin-H4KAc4 peptide 12.5 nM; A Further List of Classification
Method in brief: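 HTRF: 50 nM BRD4 preincubated 30 min at room temperature with compound (10-fold series from 50 μM in 12.5% DMSO) in 50 mM HEPES pH 7.5, 100 mM NaCl, 0.05% CHAPS. Then 12.5 nM biotin-H4KAc4 peptide for 30 min, and anti-GST XL665 (10 nM) plus streptavidin cryptate (2.4 nM) with 0.4 M KF for 1 h. IC50 by variable-slope fit.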

Structure (SMILES) | IC50
CN1C(=O)CCc2cc(NC(=O)c3ccccc3N3CCOCC3)ccc21 [S1, N-(1-methyl-2-oxo-3,4-dihydroquinolin-6-yl)-2-morpholino-benzamide] | 1000 to 10000 nM
Cc1ccc(C(=O)Nc2ccc3c(c2)CCC(=O)N3C)cc1S(=O)(=O)NC1CCCC1 [S3, 3-(cyclopentylsulfamoyl)-4-methyl-N-(1-methyl-2-oxo-3,4-dihydroquinolin-6-yl)benzamide] | 1000 to 10000 nM
CN1C(=O)CCc2cc(NC(=O)c3cccnc3N3CCOCC3)ccc21 [S4, N-(1-methyl-2-oxo-3,4-dihydroquinolin-6-yl)-2-morpholino-pyridine-3-carboxamide] | 1000 to 10000 nM
CN1CCN(c2ccccc2C(=O)Nc2ccc3c(c2)OCC(=O)N3)CC1 [S5, 2-(4-methylpiperazin-1-yl)-N-(3-oxo-4H-1,4-benzoxazin-7-yl)benzamide] | > 10000 nM
CN1CCN(c2ccccc2C(=O)Nc2ccc3c(c2)CCC(=O)N3C)CC1 [S6, N-(1-methyl-2-oxo-3,4-dihydroquinolin-6-yl)-2-(4-methylpiperazin-1-yl)benzamide] | > 10000 nM
CN1CCN(c2ccccc2C(=O)Nc2ccc3c(c2)OCC(=O)N3C)CC1 [S7, N-(4-methyl-3-oxo-1,4-benzoxazin-7-yl)-2-(4-methylpiperazin-1-yl)benzamide] | > 10000 nM
CN1C(=O)CCc2cc(NC(=O)c3ccccc3N3CCN(c4cnccn4)CC3)ccc21 [S8, N-(1-methyl-2-oxo-3,4-dihydroquinolin-6-yl)-2-(4-pyrazin-2-ylpiperazin-1-yl)benzamide] | > 10000 nM
CN1C(=O)CCc2cc(NC(=O)c3cc([N+](=O)[O-])ccc3N3CCOCC3)ccc21 [S9, N-(1-methyl-2-oxo-3,4-dihydroquinolin-6-yl)-2-morpholino-5-nitro-benzamide] | > 10000 nM
Cc1cc(O)nc2ccc(NC(=O)c3ccccc3N3CCN(C)CC3)cc12 [S10, N-(2-hydroxy-4-methyl-6-quinolyl)-2-(4-methylpiperazin-1-yl)benzamide] | 1000 to 10000 nM
Cc1cc(O)nc2ccc(NC(=O)c3ccccc3N3CCN(c4cnccn4)CC3)cc12 [S11, N-(2-hydroxy-4-methyl-6-quinolyl)-2-(4-pyrazin-2-ylpiperazin-1-yl)benzamide] | 1000 to 10000 nM
CN1C(=O)CCc2cc(NC(=O)c3cc(S(N)(=O)=O)ccc3N3CCOCC3)ccc21 [S13, N-(1-methyl-2-oxo-3,4-dihydroquinolin-6-yl)-2-morpholino-5-sulfamoyl-benzamide] | 1000 to 10000 nM
CCS(=O)(=O)Nc1ccc(N2CCN(C)CC2)c(C(=O)Nc2ccc3nc(O)cc(C)c3c2)c1 [S16, 5-(ethylsulfonylamino)-N-(2-hydroxy-4-methyl-6-quinolyl)-2-(4-methylpiperazin-1-yl)benzamide] | 1000 to 10000 nM
CNS(=O)(=O)c1cccc(C(=O)Nc2ccc3nc(O)cc(C)c3c2)c1 [S23, N-(2-hydroxy-4-methyl-6-quinolyl)-3-(methylsulfamoyl)benzamide] | > 10000 nM
Cc1cc(O)nc2ccc(NC(=O)c3cccc(CN4CCCC4=O)c3)cc12 [S24, N-(2-hydroxy-4-methyl-6-quinolyl)-3-[(2-oxopyrrolidin-1-yl)methyl]benzamide, reference compound] | > 10000 nM
Cc1cc(O)nc2ccc(NC(=O)c3cccc(S(=O)(=O)NCC(N)=O)c3)cc12 [S26, 3-[(2-amino-2-oxo-ethyl)sulfamoyl]-N-(2-hydroxy-4-methyl-6-quinolyl)benzamide] | > 10000 nM
Cc1cc(O)nc2ccc(NC(=O)c3cccc(N4CCCC4)c3)cc12 [S29, N-(2-hydroxy-4-methyl-6-quinolyl)-3-pyrrolidin-1-yl-benzamide, reference compound] | > 10000 nM
Cc1cc(O)nc2ccc(NC(=O)c3ccc(N)c([N+](=O)[O-])c3)cc12 [S30, 4-amino-N-(2-hydroxy-4-methyl-6-quinolyl)-3-nitro-benzamide, reference compound] | > 10000 nM
NS(=O)(=O)c1ccc(N2CCOCC2)c(C(=O)Nc2ccc3[nH]c(=O)cc(C(F)(F)F)c3c2)c1 [S32, 2-morpholino-N-[2-oxo-4-(trifluoromethyl)-1H-quinolin-6-yl]-5-sulfamoyl-benzamide] | 1000 to 10000 nM
Cc1cc(O)nc2ccc(NC(=O)c3cc(S(=O)(=O)N(C)C)ccc3F)cc12 [S33, 5-(dimethylsulfamoyl)-2-fluoro-N-(2-hydroxy-4-methyl-6-quinolyl)benzamide] | > 10000 nM
Cc1cc(O)nc2ccc(NC(=O)c3cc(S(=O)(=O)N4CCOCC4)ccc3Br)cc12 [S34, 2-bromo-N-(2-hydroxy-4-methyl-6-quinolyl)-5-morpholinosulfonyl-benzamide] | > 10000 nM
Cc1cc(O)nc2ccc(NC(=O)c3cccc(S(=O)(=O)N4CCN(C)CC4)c3)cc12 [S36, N-(2-hydroxy-4-methyl-6-quinolyl)-3-(4-methylpiperazin-1-yl)sulfonyl-benzamide] | > 10000 nM
CN(C)S(=O)(=O)c1ccc(N2CCOCC2)c(C(=O)Nc2ccc3[nH]c(=O)[nH]c(=O)c3c2)c1 [S37, 5-(dimethylsulfamoyl)-N-(2,4-dioxo-1H-quinazolin-6-yl)-2-morpholino-benzamide] | > 10000 nM
Cc1cc(O)nc2ccc(NC(=O)c3cc(S(=O)(=O)N(C)C)ccc3N3CCC(C)C3)cc12 (centres unmarked) [S41, 5-(dimethylsulfamoyl)-N-(2-hydroxy-4-methyl-6-quinolyl)-2-(3-methylpyrrolidin-1-yl)benzamide] | 500 to 1000 nM
COC1CCN(c2ccc(S(=O)(=O)N(C)C)cc2C(=O)Nc2ccc3nc(O)cc(C)c3c2)C1 (centres unmarked) [S43, 5-(dimethylsulfamoyl)-N-(2-hydroxy-4-methyl-6-quinolyl)-2-(3-methoxypyrrolidin-1-yl)benzamide] | 500 to 1000 nM

Next, values leading:

IC50 | Structure (SMILES)
200 to 500 nM | Cc1cc(O)nc2ccc(NC(=O)c3ccccc3N3CCOCC3)cc12 [S2, N-(2-hydroxy-4-methyl-6-quinolyl)-2-morpholino-benzamide]
< 200 nM | Cc1cc(O)nc2ccc(NC(=O)c3cc(S(N)(=O)=O)ccc3N3CCOCC3)cc12 [S12, N-(2-hydroxy-4-methyl-6-quinolyl)-2-morpholino-5-sulfamoyl-benzamide]
200 to 500 nM | Cc1cc(O)nc2ccc(NC(=O)c3cc(N4C(=O)CCC4=O)ccc3N3CCOCC3)cc12 [S14, 5-(2,5-dioxopyrrolidin-1-yl)-N-(2-hydroxy-4-methyl-6-quinolyl)-2-morpholino-benzamide]
500 to 1000 nM | Cc1cc(O)nc2ccc(NC(=O)c3cc(NS(=O)(=O)c4ccccc4)ccc3N3CCN(C)CC3)cc12 [S15, 5-(benzenesulfonamido)-N-(2-hydroxy-4-methyl-6-quinolyl)-2-(4-methylpiperazin-1-yl)benzamide]
< 200 nM | Cc1cc(O)nc2ccc(NC(=O)c3cc([N+](=O)[O-])ccc3N3CCOCC3)cc12 [S17, N-(2-hydroxy-4-methyl-6-quinolyl)-2-morpholino-5-nitro-benzamide]
< 200 nM | Cc1cc(O)nc2ccc(NC(=O)c3cc(S(=O)(=O)N4CCCCC4)ccc3N3CCOCC3)cc12 [S19, N-(2-hydroxy-4-methyl-6-quinolyl)-2-morpholino-5-(1-piperidylsulfonyl)benzamide]
< 200 nM | Cc1cc(O)nc2ccc(NC(=O)c3cc(S(=O)(=O)N4CCOCC4)ccc3N3CCOCC3)cc12 [S20, N-(2-hydroxy-4-methyl-6-quinolyl)-2-morpholino-5-morpholinosulfonyl-benzamide]
500 to 1000 nM | Cc1cc(O)nc2ccc(NC(=O)c3cccc(CN4CCNCC4)c3)cc12 [S21, N-(2-hydroxy-4-methyl-6-quinolyl)-3-(piperazin-1-ylmethyl)benzamide]
200 to 500 nM | Cc1cc(O)nc2ccc(NC(=O)c3cc([N+](=O)[O-])ccc3N(C)C)cc12 [S22, 2-(dimethylamino)-N-(2-hydroxy-4-methyl-6-quinolyl)-5-nitro-benzamide]
< 200 nM | Cc1cc(O)nc2ccc(NC(=O)c3cc([N+](=O)[O-])ccc3N3CCCC3)cc12 [S25, N-(2-hydroxy-4-methyl-6-quinolyl)-5-nitro-2-pyrrolidin-1-yl-benzamide]
< 200 nM | Cc1cc(O)nc2ccc(NC(=O)c3cc(S(=O)(=O)N(C)C)ccc3N3CCCC3)cc12 [S27, 5-(dimethylsulfamoyl)-N-(2-hydroxy-4-methyl-6-quinolyl)-2-pyrrolidin-1-yl-benzamide]
200 to 500 nM | Cc1cc(O)nc2ccc(NC(=O)c3cc(N4CCOCC4)ccc3NS(C)(=O)=O)cc12 [S28, N-(2-hydroxy-4-methyl-6-quinolyl)-2-(methanesulfonamido)-5-morpholino-benzamide]
< 200 nM | O=C(Nc1ccc2[nH]c(=O)cc(O)c2c1)c1cc(S(=O)(=O)N2CCOCC2)ccc1N1CCOCC1 [S35, N-(4-hydroxy-2-oxo-1H-quinolin-6-yl)-2-morpholino-5-morpholinosulfonyl-benzamide]
< 200 nM | CN1Cc2cc(NC(=O)c3cc(S(=O)(=O)N(C)C)ccc3N3CCOCC3)ccc2NC1=O [S39, 5-(dimethylsulfamoyl)-N-(3-methyl-2-oxo-1,4-dihydroquinazolin-6-yl)-2-morpholino-benzamide]
< 200 nM | Cc1cc(O)nc2ccc(NC(=O)c3cc(S(=O)(=O)N(C)C)ccc3N3CCC(F)C3)cc12 (centres unmarked) [S42, 5-(dimethylsulfamoyl)-2-(3-fluoropyrrolidin-1-yl)-N-(2-hydroxy-4-methyl-6-quinolyl)benzamide]

same assay, conditions: BRD4 protein 50 nM, Biotin-H4KAc4 peptide 12.5 nM; List of Classification

IC50 | Structure (SMILES)
< 200 nM | CC(=O)c1cc(C(=O)Nc2ccc3nc(O)cc(C)c3c2)c(N2CCCC2CN(C)C)cn1 (centres unmarked) [Compound-212, 2-acetyl-5-(2-((dimethylamino)methyl)pyrrolidin-1-yl)-N-(2-hydroxy-4-methylquinolin-6-yl)isonicotinamide]
< 200 nM | Cc1cc(O)nc2ccc(NC(=O)c3cc(C(C)O)ncc3N3CCCC3CN(C)C)cc12 (centres unmarked) [Compound-213, 5-(2-((dimethylamino)methyl)pyrrolidin-1-yl)-N-(2-hydroxy-4-methylquinolin-6-yl)-2-(1-hydroxyethyl)isonicotinamide]
